Legend:
[1] = tested on: naïve mice or mice following spared nerve injury (SNI); test: Repeated i.t. STING agonist administration, nerve injury (SNI) model; format: in vivo, mouse
Protocol: Mouse pain models: The chemotherapy-induced peripheral neuropathy (CIPN) model of chronic neuropathic pain was established as we have done previously, using 8-10-week-old CD-1 (strain #022, Charles River) mice injected with paclitaxel (2 mg/kg i.p.) every other day, with 4 injections total. The chronic constriction injury (CCI) model of neuropathic pain was also produced using 8-10-week-old CD-1 under isoflurane anesthesia. Briefly, the right sciatic nerve was exposed above the hip and two ligatures (7-0 Prolene) were placed around the nerve 1 mm apart located proximal to the trifurcation. Ligatures were loosely tied until a subtle flick of the ipsilateral hind limb was observed. CD-1 mice were also used to establish the SNI model, which was generated by tightly ligating the tibial and common peroneal nerves followed by transection and removal of a ˜3 mm portion of the nerve. The sural nerve was left intact and contact or stretching of this nerve was avoided . To establish the syngeneic bone cancer pain (BCP) model, 8-10-week-old C57BL/6J mice (strain #000664, Jackson Labs) were utilized, as the Lewis lung carcinoma cell line LLC1 (LL/2; ATCC CRL-1642) was originally generated in C57BL/6J mice. Mice were anesthetized with isoflurane and the left leg was shaved, disinfected with 10% povidone-iodine, and a 1 cm superficial incision was made to expose the patellar ligament. A 25-gauge needle was inserted at the intercondylar notch of the left femur into the femoral cavity, followed by needle replacement with a 10 μl Hamilton syringe microinjector containing a 2 μl suspension of LLC cells (2×10^5 cells) followed by a 2 μl gelatin sponge solution to enable closure of the injection site. All mice were housed and monitored in accordance with AAALAC standards and Duke IACUC guidelines that pertained to each model.
Reflexive-based sensory testing in mice: All behavioral testing in mice was performed in a specialized humidity- and light-controlled mouse behavior facility maintained at 21-24° C., with testing conducted between the hours of 8:00-16:00. Mice were habituated to the testing environment for at least 2 days prior to baseline testing. All tests were performed by an experimenter who was blinded to experimental conditions, including genotypes and drug treatment. For multi-day experiments using STING agonists, mice were tested in the same room at approximately the same time each day. To measure mechanical sensitivity, mice were confined to individual chambers with non-transparent borders on an elevated mesh rack, preventing mice from visualizing or interacting with one another during the testing period. […] We determined the 50% paw withdrawal threshold using the up-down method. […]

[2] = tested on: LLC / LL/2-Luc2 / E0771 bone tumors; test: Local tumor burden (bioluminescence imaging, thigh circumference ratio); format: in vivo, mouse
Protocol: Culture of LLC cells and measurement of local tumor burden: Murine LLC cells were cultured in high glucose (4.5 g/L) Dulbecco's Modified Eagle Medium (DMEM; ThermoFisher) supplemented with 10% fetal bovine serum (Gibco, ThermoFisher) and 1% Antibiotic-Antimycotic solution containing penicillin, streptomycin, and Amphotericin B (ThermoFisher, 15240062). Cells were cultured in the presence of 5% CO2 at 37° C. Cells were passaged using a 0.05% trypsin digest once they achieved 70% confluency. Prior to in vivo injection, cells were harvested with 0.05% trypsin digestion followed by several washes in PBS. Cell counts were performed using a hemocytometer and diluted to achieve a suspension of 1×10^8 ml-1 cells in PBS. To determine whether i.t. STING agonists altered local tumor burden induced by femoral inoculation with LLC cells, mice were lightly anesthetized with isoflurane at the conclusion of the experiment, followed by measurement of the total circumference of the widest aspect of the thigh, which accurately reflects tumor burden. Ratios were computed between the ipsilateral (LLC-inoculated) and contralateral (tumor-free) legs.
In vivo bioluminescence imaging. RediJect D-Luciferin Ultra was purchased from PerkinElmer (770505). Prior to in vivo imaging, mice were shaved in the region of interest depicted in the figure. Bioluminescence images of LL/2-Luc2 bearing mice were captured with IVIS Lumina III system 15 min after intraperitoneal injection of D-Luciferin (30 mg/kg). The IVIS acquisition control panel was set to following conditions for imaging: Exposure time=auto, Binning=medium, F/Stop=1, Emission Filter=open. The bioluminescence images were analyzed using Living Image software from PerkinElmer.
STING agonists suppress local bone cancer tumor burden and further metastasis. Intratumoral injection of STING agonists has been reported to reduce tumor growth by promoting T cell-mediated antitumor immunity in several preclinical animal studies. It is unknown, however, whether systemic administration of STING agonists can attenuate tumor progression in the bone marrow, which is generally regarded as an overwhelmingly immunosuppressive tumor microenvironment. To answer this question, luciferase-labeled LLC cells (LL/2-LUC2 cell line) were used to establish the metastatic bone cancer model via intrafemoral inoculation, thereby enabling measurement of local tumor burden by in vivo bioluminescent imaging. Mice were treated with vehicle or DMXAA (20 mg/kg, i.p. at d3 and d7), followed by in vivo bioluminescence imaging at d8, d11, and d15. […] To quantify this, we measured the ratio of the maximum thigh circumference (ipsilateral/contralateral), which accurately reflects local tumor volume. […]

Q: `Cc1ccc2c(=O)c3cccc(CC(=O)O)c3oc2c1C` [DMXAA, 2-(5,6-dimethyl-9-oxo-9H-xanthen-4-yl)acetic acid] was tested. Which “tolerance on repeated administration” value ([1]; repeated i.t. 35 nmol, naïve mice or SNI mice) did it give?
A: The value was “did not show signs of tolerance”.

Q: What about the SNI-induced astrogliosis ([1]; repeated i.t. administration, SNI) of the same compound?
A: Its SNI-induced astrogliosis is “attenuated SNI-induced astrogliosis”.

Q: And the “cold allodynia at later timepoints” value ([1]; repeated i.t., starting at D12)?
A: The value was “significantly reduced”.

Q: What about the “mechanical allodynia at later timepoints” value ([1]; repeated i.t., starting at D12) of the same compound?
A: Its value is “significantly reduced”.

Q: What about the “local tumor burden (total flux, bioluminescence)” value ([2]; LL/2-Luc2, 20 mg/kg i.p. d3 and d7) of the same compound?
A: The value was “lower local tumor burden at d11 and d15”.

Q: What about the “local tumor burden, Batf3^+/+ vs Batf3^−/−” value ([2]; d17) of the same compound?
A: Its value is “only tumor-bearing Batf3^+/+ mice but not Batf3^−/− mice exhibited a decrease in local tumor burden”.

Q: What about the “ratio of maximum thigh circumference, WT vs Rag1^−/−” value ([2]; d17) of the same compound?
A: The value was “effectively reduced the ratio of maximum thigh circumference only in WT mice but not in Rag1^−/− mice”.

Q: And the “ratio of maximum thigh circumference (ipsilateral/contralateral)” value ([2]; day 17, LLC and E0771 models)?
A: The value was “could reduce the ratio of maximum thigh circumference”.

Reference: patent US20230158057A1, “COMPOSITIONS AND METHODS FOR THE TREATMENT OF PAIN” (Duke University, priority 2020, published 2023)
